Laboratory results from article PMC6917733 (Scientific Reports, 2019).
“And” between values parts separate entries of the source, which are not always exact repeats. Equal entries are not always repeated. Bridge positions count the residues as written; N and C are the ends. Peptide text beside a SMILES is read from it.

Assays:
human V1bR [1] = target: T1, human V1bR (Homo sapiens, UniProt P47901); assay: IP1 accumulation (IP-One Gq assay), HEK293 cells expressing V1bR
T1 sequence (P47901 1-424): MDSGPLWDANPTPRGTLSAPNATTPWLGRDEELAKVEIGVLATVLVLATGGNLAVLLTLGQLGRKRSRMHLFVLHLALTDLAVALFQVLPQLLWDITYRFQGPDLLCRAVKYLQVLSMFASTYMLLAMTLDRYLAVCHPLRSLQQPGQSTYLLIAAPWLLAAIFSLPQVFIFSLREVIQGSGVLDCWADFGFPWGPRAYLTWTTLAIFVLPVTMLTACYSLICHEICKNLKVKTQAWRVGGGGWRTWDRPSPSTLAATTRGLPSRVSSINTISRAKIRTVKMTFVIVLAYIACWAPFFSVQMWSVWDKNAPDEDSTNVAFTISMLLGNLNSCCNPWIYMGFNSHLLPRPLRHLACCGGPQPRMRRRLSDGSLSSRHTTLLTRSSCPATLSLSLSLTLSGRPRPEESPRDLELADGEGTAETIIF

human OTR [2] = target: T2, human OTR (Homo sapiens, UniProt P30559); assay: IP1 accumulation (IP-One Gq assay), HEK293 cells expressing OTR
T2 sequence (P30559 1-389): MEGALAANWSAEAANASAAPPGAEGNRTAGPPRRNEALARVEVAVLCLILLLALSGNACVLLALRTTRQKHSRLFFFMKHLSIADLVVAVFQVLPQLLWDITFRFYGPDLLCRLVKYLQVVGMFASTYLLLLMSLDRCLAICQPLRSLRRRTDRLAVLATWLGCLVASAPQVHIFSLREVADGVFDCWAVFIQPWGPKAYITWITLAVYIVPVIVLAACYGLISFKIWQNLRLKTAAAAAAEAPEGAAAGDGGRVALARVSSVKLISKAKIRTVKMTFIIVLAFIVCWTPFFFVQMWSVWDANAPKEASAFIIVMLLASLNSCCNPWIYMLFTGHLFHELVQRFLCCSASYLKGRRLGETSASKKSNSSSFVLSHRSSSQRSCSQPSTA

human V2R [3] = target: T3, human V2R (Homo sapiens, UniProt P30518); assay: cAMP accumulation (LANCE Ultra cAMP), HEK293 cells expressing V2R
human V2R [4] = target: T3, human V2R; assay: β-arrestin-1 recruitment BRET at V2R
human V2R [5] = target: T3, human V2R; assay: β-arrestin-2 recruitment BRET at V2R; assay type: cell-based; set-up: expressed in transfected cells; host or cells: HEK293
human V1aR [6] = target: T4, human V1aR (Homo sapiens, UniProt P37288); assay: IP1 accumulation (IP-One Gq assay), HEK293 cells expressing V1aR; settings: concentrations up to 10 µM
human V1aR [7] = target: T4, human V1aR; assay: Antagonist screen and Schild regression analysis (IP1) at V1aR
human V1aR [8] = target: T4, human V1aR; assay: β-arrestin-2 recruitment BRET at V1aR
human V1bR [9] = target: T1, human V1bR; assay: β-arrestin-2 recruitment BRET at V1bR; assay type: cell-based; set-up: expressed in transfected cells; host or cells: HEK293; settings: for EC50: β-arrestin-2 recruitment
human OTR [10] = target: T2, human OTR; assay: β-arrestin-2 recruitment BRET at OTR
[11] = system: V2R-mediated ERK 1/2 phosphorylation; assay: Immunoblotting for ERK 1/2 phosphorylation in HEK293 cells expressing V2R; assay type: cell-based, human; settings: 1 µM peptide
Experimental: Immunoblotting was performed as described previously. Briefly, following an overnight incubation and 16 h starvation HEK293 cells transiently expressing human V2R were treated with 1 µM I8-arachnotocin or 1 µM VP prepared in DMEM. Cells were incubated with peptide ligands at 37 °C for indicated periods and 1 mL of chilled 1x phosphate-buffered saline were used to terminate the incubation. After freeze-thaw cycle in liquid nitrogen cells were solubilized in 100 µl of lysis buffer (50 mM HEPES, 0.5% NP-40 substitute, 50 mM glycerol-2-phosphate, 250 mM NaCl, 5 mM EDTA, 2 mM imidazole, 1 mM Na3VO4, 1 mM hepta-molybdate, pH adjusted to 7.0 with NaOH), freshly added 1 mM PMSF, one cOmplete Mini EDTA-free tablet (Roche) and one PhosSTOP tablet (Roche) and then centrifuged at 10,000 × g for 10 min. The bicinchoninic acid assay (Micro-BCA kit, Pierce) was used to measure total protein content. Phosphorylated and total ERK 1/2 were detected by immunoblotting on the same membrane using the same exposure method with an anti-phospho-p44/42 MAPK antibody (ERK 1/2) (1:1,000; Cell Signaling Technology) and an anti-p44/42 MAPK (ERK 1/2) (1:1,000; Cell Signaling Technology), respectively. Detection and quantification of resulting bands were executed by secondary antibodies (Donkey anti rabbit 680RD and […]) and Odyssey Clx (LiCor Biosciences) infrared fluorescent imaging system, respectively.

[12] = target: EGFP-tagged human vasopressin V1b receptor (human) (UniProt P47901)
[13] = target: EGFP-tagged human oxytocin receptor (human) (UniProt P30559)
[14] = target: EGFP-tagged human vasopressin V1b receptor (human) (UniProt P47901); remark: listed apart in the source
[15] = target: EGFP-tagged human vasopressin V2 receptor (human) (UniProt P30518)
[16] = target: EGFP-tagged human vasopressin V1a receptor (human) (UniProt P37288)
[17] = target: EGFP-tagged human oxytocin receptor (human) (UniProt P30559); remark: listed apart in the source
[18] = target: EGFP-tagged human vasopressin V2 receptor (human) (UniProt P30518); remark: listed apart in the source

`CC[C@H](C)[C@@H]1NC(=O)[C@H](Cc2ccccc2)NC(=O)[C@@H](N)CSSC[C@@H](C(=O)N2CCC[C@H]2C(=O)N[C@H](C(=O)NCC(N)=O)[C@@H](C)CC)NC(=O)[C@H](CC(N)=O)NC(=O)[C@H]([C@@H](C)O)NC1=O` [I8-arachnotocin] (H-CFITNCPIG-NH2; disulfide 1-6; N-terminus assumed) was tested, and the EC50 (human V1bR [1]; EC50, IP1 accumulation, G protein-mediated, V1bR) was 1200 nM, the Emax (human V1bR [1]; HEK293) was 104 ± 8% and the type of agonism (human V1bR [1]; V1bR, second messenger signaling) was “full agonist”. For the same molecule, the “fold less potent compared to the endogenous peptide” value (“fold less potent” below) (human V1bR [1]; V1bR, vs VP) was 750 fold, the EC50 (human V1bR [1]; pEC50 (as logEC50 ± SEM), IP1 accumulation, V1bR) was 1170 nM and the EC50 (human OTR [2]; EC50, IP1 accumulation, G protein-mediated, OTR) was 790 nM. For the same molecule, the Emax (human OTR [2]; HEK293) was 62 ± 6%, the type of agonism (human OTR [2]; OTR, second messenger signaling) was “partial agonist” and the “fold less potent” value (human OTR [2]; OTR, vs OT) was 65 fold. For the same molecule, the EC50 (human OTR [2]; pEC50 (as logEC50 ± SEM), IP1 accumulation, OTR) was 776 nM, the EC50 (human V2R [3]; EC50, cAMP accumulation, G protein-mediated, V2R) was 34 nM and the Emax (human V2R [3]; HEK293) was 99 ± 3%. For the same molecule, the type of agonism (human V2R [3]; V2R, second messenger signaling) was “full agonist”, the “fold less potent” value (human V2R [3]; V2R, vs VP) was 5,000 fold and the EC50 (human V2R [3]; pEC50 (as logEC50 ± SEM), cAMP accumulation, V2R) was 33.9 nM. The β-arrestin-1 recruitment kinetics (human V2R [4]; 10 µM ligand, time-dependent) was “failed to recruit β-arrestin-1”, the β-arrestin-1 recruitment (human V2R [4]; up to 100 µM) was “no β-arrestin-1 recruitment” and the “difference non-β-arrestin-dependent vs β-arrestin-dependent EC50” value (human V2R [5]) was > 2,000 fold. For the same molecule, the β-arrestin-2 recruitment kinetics (human V2R [5]; 10 µM ligand) was “absent”, the β-arrestin-2 recruitment (human V2R [5]; up to a concentration of 100 µM) was “did not recruit β-arrestin-2” and the EC50 (human V2R [5]; β-arrestin-1 or -2 recruitment, read-out: EC50 of β-arrestin-dependent signaling pathway) was > 100000 nM. For the same molecule, the “activation of V1aR” value (human V1aR [6]) was “No activation”, the “pA2 expressed as concentration” value (human V1aR [7]; Schild regression at V1aR) was 558 nM and ~ 558 nM and the pA2 (human V1aR [7]; Schild regression, VP curves in presence of 1, 3, 10 µM I8-arachnotocin) was 6.25 and 6.253. For the same molecule, the Schild regression slope (human V1aR [7]; V1aR, VP as agonist) was 1.28 ± 0.02, the type of antagonism (human V1aR [7]; V1aR, dextral shift without affecting Emax) was “competitive antagonist” and the “IP1 levels in antagonist screen” value (human V1aR [7]; VP (0.55 nM) in the presence of 1 and 10 µM I8-arachnotocin) was “lower IP1 levels than VP alone”. For the same molecule, the β-arrestin-2 recruitment kinetics (human V1aR [8]; 10 µM ligand) was “absent”, the β-arrestin-2 recruitment (human V1aR [8]; concentration up to 100 µM) was “no I8-arachnotocin-induced β-arrestin-2 recruitment was detected” and the Emax (human V1bR [9]) was 65 ± 5%. The “bias (method of Kenakin) compared to VP” value (human V1bR [9]; V1bR, G protein vs β-arrestin-2) was “did not detect differences”, the EC50 (human V1bR [9]; V1bR, read-out: EC50) was 1200 nM and the EC50 (human V1bR [9]; V1bR, read-out: pEC50 (as logEC50 ± SEM) (converted)) was 1200 nM. The Emax (human OTR [10]) was 32 ± 5%, the EC50 (human OTR [10]; EC50, β-arrestin-2 recruitment, OTR) was 5700 nM and the β-arrestin-2 recruitment kinetics (human OTR [10]; OTR, 10 µM ligand) was “absent”. For the same molecule, the “bias (method of Kenakin) compared to OT” value (human OTR [10]; OTR, G protein vs β-arrestin-2) was “did not detect differences”, the EC50 (human OTR [10]; pEC50 (as logEC50 ± SEM), β-arrestin-2 recruitment, OTR) was 5750 nM and the “course of ERK 1/2 phosphorylation after the peak (late phase, 30–120 min)” value ([11]; 1 min to 2 h) was “decreased over time”. For the same molecule, the “time of peak ERK 1/2 phosphorylation” value ([11]; HEK293 expressing human V2R) was 5 min.
Molecule I8-arachnotocin (peptide) has a β-arrestin-2 recruitment to V1bR (BRET) against I8-arachnotocin concentration; EC50 [12] of 1200 nM, a β-arrestin-2 recruitment to OTR (BRET) against I8-arachnotocin concentration; EC50 [13] of 5700 nM and an IP1 accumulation (Gαq) in HEK293 cells expressing human V1bR; EC50 [14] of 1200 nM. It also gave an IP1 accumulation (Gαq) in HEK293 cells expressing human V1bR; Emax relative to VP [14] of 104%, a cAMP accumulation (Gαs) in HEK293 cells expressing human V2R; EC50 [15] of 34 nM and a cAMP accumulation (Gαs) in HEK293 cells expressing human V2R; Emax relative to VP [15] of 99%. The Schild regression of VP-induced IP1 accumulation at human V1aR in the presence of 1, 3 and 10 µM I8-arachnotocin (blocks VP at V1aR); pA2 [16] was 6.25, the Schild regression of VP-induced IP1 accumulation at human V1aR in the presence of 1, 3 and 10 µM I8-arachnotocin (blocks VP at V1aR); pA2 as a concentration [16] was 0.558 µM and the IP1 accumulation (Gαq) in HEK293 cells expressing human OTR; EC50 [17] was 790 nM. The IP1 accumulation (Gαq) in HEK293 cells expressing human OTR; Emax relative to OT [17] was 62%, the non-β-arrestin-dependent signaling at V2R as restated in the discussion; EC50 [18] was 50 nM and the β-arrestin-dependent signaling (β-arrestin recruitment) at V2R as restated in the discussion; EC50 [18] was > 100000 nM.
Work on “oxytocin (from UniProt P01178 20-28) (peptide)” yielded a β-arrestin-2 recruitment to OTR (BRET) against OT concentration; EC50 [13] of 170 nM and an IP1 accumulation (Gαq) in HEK293 cells expressing human OTR; EC50 [17] of 12 nM.
